From patent publication US20240400506A1, “DIROXIMEL FUMARATE PARTICLES HAVING IMPROVED FLOW PROPERTIES AND METHODS OF MAKING SAME” (BIOGEN MA INC., priority 2021, published 2024)
Structures can show the parent of a compound that is named as a salt.

What was measured:
[1] = Particle size distribution (volume diameter D10/D50/D90, span); format: physicochemical; conditions: for Final PSD after ripening D10 / Final PSD after ripening D50 / Final PSD after ripening D90: after ripening at 40, 43 or 48 °C; for D10 (values across lots) / span (values across lots): range over the lots of the example
Method: Particle size is expressed in terms of volume diameter, which is used to provide a dimensional description of particles which are non-spherical. “Volume diameter” refers to the diameter of a sphere with equal volume of the non-spherical particle. Particle size can be measured according to methods well known in the art, including a laser diffraction technique that correlates light scattering to particle volume on which effective length or effective diameter is calculated.
Particle size distribution is expressed in terms of D50, D10, D90 and span. “Span” is a measure for particle size distribution. It is calculated according to the following equation: […]
“D50”, also known as the median diameter, corresponds to the value under which 50% of the particles has a lower volume diameter. “D90” corresponds to the value under which 90% of the particles has a lower volume diameter. “D10” corresponds to the value under which 10% of the particles has a lower volume diameter.

[2] = Ring shear test: flow function coefficient and cohesion (Jenike-Johanson RST-XS, ASTM D6773-16); format: physicochemical; conditions: neat particles; for average cohesion: four lots (FIG. 3); for average FFc (flow function coefficient): four lots, pre-load 3 kPa (FIG. 2)
Text: “Flow function”, “flow function coefficient”, or FFc is a parameter commonly used to rank the flowability of a particulate sample, which could be a sample of neat API particles or a blend containing API particles plus additives. • Powder flowability is ranked as follows: • FFc<1 not flowing • 1<FFc<2 very cohesive • 2<FFc<4 Cohesive • 4<FFc<10 easy flowing • FFc>10 free flowing The measurement of FFc and Cohesion outlined below follows the procedures described in ASTM D6773-16. […] To test FFc and Cohesion, a particulate sample is added to a commercially available ring shear testing device, such as a Jenike-Johanson RST-XS ring shear tester. Such testing is familiar to the person of ordinary skill in the art. In general, the powder is loaded into an annular trough and a consolidated powder bed is formed. A normal stress (σp) is applied to the consolidated powder bed and the pre-shear stress (ζp) is measured. The normal stress is applied as a vertical load through an annular lid. The shear cell rotates relative to the lid and the torque necessary for shearing is measured. Repeat measurements with a series of values of normal stress are applied. When the measured shear stress values (Y-axis) are plotted as function of applied normal stress values (X-axis), the linear relation between them is called the yield locus. The yield locus line can be used to determine a unique relationship between normal stress and shear stress; this is known as a Mohr circle. The yield locus line represents a tangential line of all Mohr circles. The outer larger radius circle corresponds to pre-shear conditions (σp, ζp) and defines the Major Principal Stress, MPS (σ1). The smaller radius circle defines the Unconfined Yield Stress, UYS (σc). Flow function coefficient or FFc is the ratio of Major Principle Stress (MPS) to the Unconfined Yield Strength (UYS): Cohesion is the propensity for particles within a sample to self-associate or “stick together”. The ring shear tester measures cohesion at the same time that it measure FFc. The intercept of yield locus line at zero normal stress (i.e., where the extrapolation of the yield locus line intercepts the Y axis) is known as powder cohesion, and is expressed in Pascal (Pa) units. Lower cohesion is associated with better powder flowability. Further, cohesion predicts how particulate samples will behave when stored, for example when stored in a silo. […] The flow function coefficient (FFc) was measured as described above to quantify the flow properties of neat diroximel fumarate particles of Example 1 (dry milled) and Example 2 (wet milled and ripened). […]

[3] = dry milled API, representative commercial lot
[4] = dry milled API, (D90 − D10)/D50
[5] = final PSD after ripening, (D90 − D10)/D50
[6] = final product, wet milled and ripened in IPAC/IPA, 43 °C

Row | SMILES | Final PSD after ripening D10 [1] | Final PSD after ripening D50 [1] | Final PSD after ripening D90 [1] | PSD after wet milling D10 ([1]; before ripening) | PSD after wet milling D50 ([1]; before ripening) | PSD after wet milling D90 ([1]; before ripening) | D10 [1, 3] | D50 [1, 3] | D90 [1, 3] | Span [1, 4] | Span [1, 5] | D10 (values across lots) [1] | span (values across lots) [1] | average cohesion [2] | average FFc (flow function coefficient) [2] | median particle size D50, in-process after wet milling ([1]; IPAC/IPA slurry, after 23 volume turnovers, before ripening) | Span ([1]; final product, wet milled and ripened in IPAC/IPA) | D10 [1, 6] | D50 [1, 6] | D90 [1, 6]
1 | COC(=O)/C=C/C(=O)OCCN1C(=O)CCC1=O [compound 1, diroximel fumarate] | 37.2 μm | 89.3 μm | 162.5 μm | 11.6 μm | 53.0 μm | 155 μm | 17 μm | 96 μm | 347 μm | 3.4 | 1.4 |  |  |  |  |  |  |  |  | 
2 | COC(=O)/C=C/C(=O)OCCN1C(=O)CCC1=O [compound 4, diroximel fumarate] |  |  |  |  |  |  | 16 μm | 95 μm | 302 μm | 3.0 |  |  |  |  |  |  |  |  |  | 
3 | COC(=O)/C=C/C(=O)OCCN1C(=O)CCC1=O [compound 3, diroximel fumarate] | 41.0 μm | 111.9 μm | 222.9 μm | 9.15 μm | 35.2 μm | 116 μm | 18 μm | 101 μm | 307 μm | 2.9 | 1.6 |  |  |  |  |  |  |  |  | 
4 | COC(=O)/C=C/C(=O)OCCN1C(=O)CCC1=O [compound 2, diroximel fumarate] | 40.7 μm | 96.1 μm | 204.5 μm | 12.4 μm | 66.3 μm | 179 μm | 17 μm | 106 μm | 347 μm | 3.1 | 1.7 |  |  |  |  |  |  |  |  | 
5 | COC(=O)/C=C/C(=O)OCCN1C(=O)CCC1=O [Example 2, diroximel fumarate] |  |  |  |  |  |  |  |  |  |  |  | 37.2-41.0 μm | 1.4-1.7 | 219 Pa | about 4 |  |  |  |  | 
6 | COC(=O)/C=C/C(=O)OCCN1C(=O)CCC1=O [Example 6, diroximel fumarate] |  |  |  |  |  |  |  |  |  |  |  |  |  |  |  | 43 microns | 1.4 | 40 μm | 92 μm | 173 μm
7 | COC(=O)/C=C/C(=O)OCCN1C(=O)CCC1=O [Example 1, diroximel fumarate] |  |  |  |  |  |  |  |  |  |  |  | 16-18 μm | 2.9-3.4 | 270 Pa | less than 4 |  |  |  |  | 
